The values that follow come from patent US8575201B2 (Boehringer Ingelheim International GmbH, priority 2010, dated 2013).

As usually defined, the IC50 is the concentration needed to halve the response being measured.

Assay [1] has as its target recombinant human FLAP protein (Homo sapiens (Human), UniProt P20292). The assay can be described thus: FLAP binding assay (Scintillation Proximity Assay, displacement of [125I]L-691,831). Conditions: read-out: FLAP SPA IC50. Here is the method: Assessment of Biological Properties 1. Binding Assay: Compounds are assessed for the ability to bind to FLAP in a binding assay that measures compound-specific displacement of an iodinated (^125I) FLAP inhibitor via a Scintillation Proximity Assay format (adapted from S. Charleson et al., Mol. Pharmacol., 1992, 41, 873-879). […] The cells are lysed with a Dounce homogenizer and the material is centrifuged at 10,000×g for 10 minutes. The supernatant is then collected and centrifuged at 100,000×g for 60 minutes. To prepare membrane protein for an assay, an aliquot of the 100,000×g pellet is resuspended in 1 ml of buffer A, Dounce homogenized, and finally subjected to polytron mixing (30 seconds). […] Mol. Pharmacol., 41, 873-879, 1992) and finally 50 μl of the bead/protein mixture. (final concentrations: beads, 200 μg/well; protein, 5 μg/well; […] The plates are shaken for 2 h before reading on a Microbeta plate reader.
A general note: SPA uses beads or plates that emit light when radiolabelled molecules are held near them.

The subject of assay [2] is synthesis of LTB4 in human whole blood. The assay can be described thus: Human whole blood LTB4 production inhibition assay. Conditions: calcimycin stimulated, read-out: hWB LTB4 IC50. It counts as cell-based. On the procedure:
Compounds are additionally tested in a human whole blood assay to determine their ability to inhibit the synthesis of LTB4 in a cellular system. Compounds are combined with heparinized human whole blood and incubated for 15 minutes at 37° C. Calcimycin (20 μM final, prepared in phosphate-buffered saline, pH 7.4) is then added and the mixture is incubated for another 30 minutes at 37° C. The samples are centrifuged for 5 min at low speed (1500×g) and the plasma layer is removed. Plasma LTB4 concentrations are then measured using an antibody-based homogenous time-resolved fluorescence method (CisBio, Bedford, Mass.).

recombinant human FLAP protein, sequence (P20292 whole entry): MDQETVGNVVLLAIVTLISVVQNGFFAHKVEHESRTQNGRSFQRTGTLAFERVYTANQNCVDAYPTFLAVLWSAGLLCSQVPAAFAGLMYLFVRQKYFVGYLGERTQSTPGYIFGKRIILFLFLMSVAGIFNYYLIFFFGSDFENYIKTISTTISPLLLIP

Regarding “5-(6-{1-[5-(3-methyl- 1H-pyrazol-4-yl)-1,2,4- oxadiazol-3- yl]cyclobutyl}pyridin-3- yl)pyrimidin-2-amine [Example 135]”, the IC50 was determined as 27 nM in assay [1] and 400 nM in assay [2].

Take `CC(C)(C)OC(=O)N1CCN(c2ccc(-c3nc(C4(c5ccc(-c6cnc(N)nc6)nc5)CCC4)no3)cn2)CC1` [Example 1, tert-butyl 4-[5-(3-{1-[6-(2-aminopyrimidin-5-yl)pyridin-3-yl]cyclobutyl}-1,2,4-oxadiazol-5-yl)pyridin-2-yl]piperazine-1-carboxylate]: the IC50 in assay [1] came to 3.8 nM; in assay [2] it was 280 nM.

`NC(=O)CNc1ccc(-c2nc(C3(c4ccc(-c5cnc(N)nc5)nc4)CCC3)no2)cn1` [Example 2, N-2-[5-(3-{1-[6-(2-aminopyrimidin-5-yl)pyridin-3-yl]cyclobutyl}-1,2,4-oxadiazol-5-yl)pyridin-2-yl]glycinamide]: the figures for the IC50 in assay [1] and in assay [2] were 5 nM and 740 nM, respectively.

Take `Nc1ncc(-c2ccc(C3(c4noc(-c5ccc(N6CCNCC6)nc5)n4)CCC3)cn2)cn1` [Example 3, 5-[5-(1-{5-[6-(piperazin-1-yl)pyridin-3-yl]-1,2,4-oxadiazol-3-yl}cyclobutyl)pyridin-2-yl]pyrimidin-2-amine]: the values for the IC50 in assay [1] and in assay [2] were 2.7 nM and 150 nM, respectively.

Consider `Nc1ncc(-c2ccc(C3(c4noc(-c5cc[nH]n5)n4)CCC3)cn2)cn1` [Example 4, 5-(5-{1-[5-(1H-pyrazol-3-yl)-1,2,4-oxadiazol-3-yl]cyclobutyl}pyridin-2-yl)pyrimidin-2-amine], for which the IC50 turned out to be 17 nM in assay [1] and 430 nM in assay [2].

As for `Cc1cccc(-c2nc(C3(c4ccc(-c5cnc(N)nc5)nc4)CCC3)no2)c1` [Example 5, 5-(5-{1-[5-(3-methylphenyl)-1,2,4-oxadiazol-3-yl]cyclobutyl}pyridin-2-yl)pyrimidin-2-amine], the IC50 in assay [1] was 8.8 nM; in assay [2] it was 1100 nM.

As to `Cc1ccc(-c2nc(C3(c4ccc(-c5cnc(N)nc5)nc4)CCC3)no2)cc1` [Example 6, 5-(5-{1-[5-(4-methylphenyl)-1,2,4-oxadiazol-3-yl]cyclobutyl}pyridin-2-yl)pyrimidin-2-amine], the IC50 in assay [1] turned out to be 5.8 nM; in assay [2], 830 nM.

On to `CS(=O)(=O)c1ccc(-c2nc(C3(c4ccc(-c5cnc(N)nc5)nc4)CCC3)no2)cc1` [Example 7, 5-[5-(1-{5-[4-(methylsulfonyl)phenyl]-1,2,4-oxadiazol-3-yl}cyclobutyl)pyridin-2-yl]pyrimidin-2-amine], for which the IC50 in assay [1] is 11 nM; in assay [2] it was 690 nM.

Turning to `CCNc1ccc(-c2nc(C3(c4ccc(-c5cnc(N)nc5)nc4)CCC3)no2)cn1` [Example 8, 5-[5-(1-{5-[6-(ethylamino)pyridin-3-yl]-1,2,4-oxadiazol-3-yl}cyclobutyl)pyridin-2-yl]pyrimidin-2-amine], the IC50 in assay [1] is 2 nM; in assay [2], 110 nM.

Take `Nc1ncc(-c2ccc(C3(c4noc(-c5ccc(NC6CC6)nc5)n4)CCC3)cn2)cn1` [Example 9, 5-[5-(1-{5-[6-(cyclopropylamino)pyridin-3-yl]-1,2,4-oxadiazol-3-yl}cyclobutyl)pyridin-2-yl]pyrimidin-2-amine]: the IC50 was 2.9 nM in assay [1] and 320 nM in assay [2].

Regarding `Nc1ncc(-c2ccc(C3(c4noc(-c5cc(N)[nH]n5)n4)CCC3)cn2)cn1` [Example 10, 5-(5-{1-[5-(5-amino-1H-pyrazol-3-yl)-1,2,4-oxadiazol-3-yl]cyclobutyl}pyridin-2-yl)pyrimidin-2-amine], the IC50 is 30 nM in assay [1] and 650 nM in assay [2].

Regarding `CS(=O)(=O)c1cccc(-c2nc(C3(c4ccc(-c5cnc(N)nc5)nc4)CCC3)no2)c1` [Example 11, 5-[5-(1-{5-[3-(methylsulfonyl)phenyl]-1,2,4-oxadiazol-3-yl}cyclobutyl)pyridin-2-yl]pyrimidin-2-amine], the figures for the IC50 in assay [1] and in assay [2] were 78 nM and 2200 nM, respectively.

In the case of `CC(C)(O)CNc1ccc(-c2nc(C3(c4ccc(-c5cnc(N)nc5)nc4)CCC3)no2)cn1` [Example 12, 1-{[5-(3-{1-[6-(2-aminopyrimidin-5-yl)pyridin-3-yl]cyclobutyl}-1,2,4-oxadiazol-5-yl)pyridin-2-yl]amino}-2-methylpropan-2-ol], the IC50 in assay [1] came out at 2.1 nM; in assay [2] it was 140 nM.

Regarding `CCOC(=O)CNc1ccc(-c2nc(C3(c4ccc(-c5cnc(N)nc5)nc4)CCC3)no2)cn1` [Example 13, ethyl N-[5-(3-{1-[6-(2-aminopyrimidin-5-yl)pyridin-3-yl]cyclobutyl}-1,2,4-oxadiazol-5-yl)pyridin-2-yl]glycinate], the IC50 in assay [1] was determined as 3.9 nM; in assay [2] it was 170 nM.

Turning to `Nc1ncc(-c2ccc(C3(c4noc(-c5c[nH]nn5)n4)CCC3)cn2)cn1` [Example 14, 5-(5-{1-[5-(1H-1,2,3-triazol-4-yl)-1,2,4-oxadiazol-3-yl]cyclobutyl}pyridin-2-yl)pyrimidin-2-amine], the IC50 was 140 nM in assay [1] and above 5000 nM in assay [2].

As to `COCCn1cc(-c2nc(C3(c4ccc(-c5cnc(N)nc5)nc4)CCC3)no2)cn1` [Example 28, 5-[5-(1-{5-[1-(2-methoxyethyl)-1H-pyrazol-4-yl]-1,2,4-oxadiazol-3-yl}cyclobutyl)pyridin-2-yl]pyrimidin-2-amine], the IC50 in assay [2] stood at 210 nM.

In the case of `COC(=O)[C@@H]1CN(c2ccc(-c3nc(C4(c5ccc(-c6cnc(N)nc6)nc5)CCC4)no3)cn2)CCN1` [Example 39, methyl (2S)-[5-(3-{1-[6-(2-aminopyrimidin-5-yl)pyridin-3-yl]cyclobutyl}-1,2,4-oxadiazol-5-yl)pyridin-2-yl]piperazine-2-carboxylate], the half-maximal inhibitory concentration (IC50) in assay [2] came to 86 nM.

Consider `COCCNc1cnc(-c2nc(C3(c4ccc(-c5cnc(N)nc5)nc4)CCC3)no2)cn1` [Example 56, 5-{5-[1-(5-{5-[(2-methoxyethyl)amino]pyrazin-2-yl}-1,2,4-oxadiazol-3-yl)cyclobutyl]pyridin-2-yl}pyrimidin-2-amine], for which the IC50 in assay [2] was 24 nM.

In the case of `CCNc1cnc(-c2nc(C3(c4ccc(-c5cnc(N)nc5)nc4)CCC3)no2)cn1` [Example 57, 5-[5-(1-{5-[5-(ethylamino)pyrazin-2-yl]-1,2,4-oxadiazol-3-yl}cyclobutyl)pyridin-2-yl]pyrimidin-2-amine], in assay [2], the 50% inhibitory concentration (IC50) stood at 34 nM.

Consider `CN1CCN(c2cnc(-c3nc(C4(c5ccc(-c6cnc(N)nc6)nc5)CCC4)no3)cn2)CC1` [Example 61, 5-[5-(1-{5-[5-(4-methylpiperazin-1-yl)pyrazin-2-yl]-1,2,4-oxadiazol-3-yl}cyclobutyl)pyridin-2-yl]pyrimidin-2-amine], for which, in assay [2], the IC50 was 41 nM.

For `Nc1ncc(-c2ccc(C3(c4noc(-c5ccc6[nH]ncc6c5)n4)CCC3)cn2)cn1` [Example 79, 5-(5-{1-[5-(1H-indazol-5-yl)-1,2,4-oxadiazol-3-yl]cyclobutyl}pyridin-2-yl)pyrimidin-2-amine], the IC50 in assay [2] came to 68 nM.

For `CC(C)(C)NC(=O)Cn1cc(-c2nc(C3(c4ccc(-c5cnc(N)nc5)nc4)CCC3)no2)cn1` [Example 144, 2-[4-(3-{1-[6-(2-aminopyrimidin-5-yl)pyridin-3-yl]cyclobutyl}-1,2,4-oxadiazol-5-yl)-1H-pyrazol-1-yl]-N-tert-butylacetamide], the IC50 in assay [2] turned out to be 190 nM.

Turning to `CCNC(=O)Cn1cc(-c2nc(C3(c4ccc(-c5cnc(N)nc5)nc4)CCC3)no2)cn1` [Example 158, 2-[4-(3-{1-[6-(2-amino-pyrimidin-5-yl)-pyridin-3-yl]-cyclobutyl}-[1,2,4]oxadiazol-5-yl)-pyrazol-1-yl]-N-ethyl-acetamide], the IC50 in assay [2] worked out at 550 nM.

With `Cc1nc(N)cnc1-c1ccc(C2(c3noc(-c4cnn(C5COC5)c4)n3)CCC2)cn1` [Example 169, 6-Methyl-5-(5-{1-[5-(1-oxetan-3-yl-1H-pyrazol-4-yl)-[1,2,4]oxadiazol-3-yl]-cyclobutyl}-pyridin-2-yl)-pyrazin-2-ylamine], the IC50 in assay [2] came out at 21 nM.

As for `N#CCn1cc(-c2nc(C3(c4ccc(-c5cnc(N)cn5)nc4)CCC3)no2)cn1` [Example 170, [4-(3-{1-[6-(5-Amino-pyrazin-2-yl)-pyridin-3-yl]-cyclobutyl}-[1,2,4]oxadiazol-5-yl)-pyrazol-1-yl]-acetonitrile], the IC50 in assay [2] was 51 nM.

Regarding `Cc1nc(N)cnc1-c1ccc(C2(c3noc(-c4cnn(CC(C)(C)O)c4)n3)CCC2)cn1` [Example 172, 1-[4-(3-{1-[6-(5-Amino-3-methyl-pyrazin-2-yl)-pyridin-3-yl]-cyclobutyl}-[1,2,4]oxadiazol-5-yl)-pyrazol-1-yl]-2-methyl-propan-2-ol], in assay [2], the IC50 is 51 nM.

In the case of `CNc1cnc(-c2ccc(C3(c4noc(-c5cnn(CC#N)c5)n4)CCC3)cn2)cn1` [Example 173, [4-(3-{1-[6-(5-Methylamino-pyrazin-2-yl)-pyridin-3-yl]-cyclobutyl}-[1,2,4]oxadiazol-5-yl)-pyrazol-1-yl]-acetonitrile], the IC50 in assay [2] is 18 nM.
